Measurements taken from publication PMC12383145, “Fluorescent Peptides Internalize HeLa Cells and Kill Multidrug-Resistant Clinical Bacterial Isolates” (Antibiotics, 2025).
“And” between values parts separate entries of the source, which are not always exact repeats. Equal entries are not always repeated. Where two headings read alike, the source gives them in different places. No end group written: not given here.

Assays:
Assay type in all cases: cell-based
E. coli ATCC 25922 = conditions: E. coli ATCC 25922
Experimental: (§1) The minimum inhibitory concentration (MIC) of the peptides was determined by the broth microdilution technique, according to the Clinical and Laboratory Standards Institute (CLSI) guidelines, as previously described. Briefly, bacterial strains were incubated in BHI broth at 37 °C until they reached the exponential growth phase, and inocula were adjusted to 5 × 10^6 CFU/mL using calibration curves. Serial dilutions of the peptides to be evaluated in 96-well plates were made in 90 µL of Mueller Hinton broth at concentrations ranging from 200 to 6.25 µg/mL, and 10 µL of the inoculum adjusted to 5 × 10^6 CFU/mL was added. Finally, the plates were incubated at 37 °C for 24 h, and the absorbance at 620 nm was read. As a negative control, CMH, distilled water, and 10 µL of inoculum were used; for the positive control, vancomycin was used for Gram-positive strains and ciprofloxacin for Gram-negative strains at the MICs dictated by the CLSI; as a technical control, CMH with peptone water was used, and for the growth control, CMH was used with 10 µL of inoculum.
(§2) To determine the minimum bactericidal concentration (MBC), the 96-well plates where the MIC was determined were used as a starting point. From these, an aliquot of the controls and those wells where no apparent bacterial growth was observed were spotted onto trypticase soy agar plates. The plates were incubated at 37 °C for 24 h, and the reading was taken, identifying the lowest concentration of the peptide where there was no bacterial growth as the MBC.

E. faecalis ATCC 29212 = conditions: E. faecalis ATCC 29212
Experimental: as §1, §2

[1] = system: K. pneumoniae ATCC 700603; conditions: K. pneumoniae ATCC 700603
Experimental: as §1, §2

P. aeruginosa ATCC 27853 = conditions: P. aeruginosa ATCC 27853
Experimental: as §1, §2

S. aureus ATCC 25923 = conditions: S. aureus ATCC 25923
Experimental: as §1, §2

[2] = system: S. aureus clinical isolate 11719; conditions: S. aureus clinical isolate 11719
[3] = system: E. coli clinical isolate 1004 (susceptible); conditions: E. coli clinical isolate 1004
Experimental: (§3) E. coli isolates 1004 (susceptible), 129797 (resistant), and 301755 (MDR) were selected for evaluation. Isolate 1004 was sensitive to all antibiotics tested. […] These findings identify it as a multidrug-resistant (MDR) strain and an extended-spectrum beta-lactamase (ESBL)-producing bacterium. For S. aureus, isolates 109095, 117719, and 124653 were evaluated. All three were resistant to penicillin, indicating beta-lactamase production mediated by the blaZ gene. Studies have shown that up to 90% of S. aureus isolates worldwide are penicillin-resistant, which implies that this antibiotic is ineffective in infections caused by this pathogen. […] Isolate 124653 was resistant to penicillin, tetracycline, and erythromycin, with the latter belonging to the group of macrolides, antibiotics that inhibit protein synthesis through interaction with the 50S […] subunit. For E. faecalis three isolates were selected: strains 213 (sensitive to all the antibiotics tested), strain 82 (resistant to streptomycin), and strain 179 (resistant to gentamicin). These clinical isolates were selected to assess the antimicrobial activity of the peptide RWQWRWQWR and its analogues conjugated to fluorescent molecules in strains against strains with susceptibility profiles.
(§4) The analysis of synthesized peptides in ATCC reference strains and susceptible, resistant, and multidrug-resistant (MDR) clinical isolates was performed. The clinical isolates were obtained from the National Cancer Institute collection and were previously identified and antibiogrammed using the VITEK system. Additionally, the strains were characterized by MALDI-TOF. The strains were re-primed onto trypticase soy agar and subsequently preserved in Brain–Heart Infusion (BHI) broth containing 20% glycerol. For the MIC and MBC assays, the strains were reactivated and cultured in BHI until they reached their exponential growth phase.
as §1, §2

[4] = system: E. coli clinical isolate 129797 (resistant); conditions: E. coli clinical isolate 129797
Experimental: as §3, §4, §1, §2

[5] = system: E. coli clinical isolate 301755 (MDR); conditions: E. coli clinical isolate 301755
Experimental: as §3, §4, §1, §2

[6] = system: E. faecalis clinical isolate 179; conditions: E. faecalis clinical isolate 179
Experimental: as §3, §4, §1, §2

[7] = system: E. faecalis clinical isolate 213; conditions: E. faecalis clinical isolate 213
Experimental: as §3, §4, §1, §2

[8] = system: E. faecalis clinical isolate 82; conditions: E. faecalis clinical isolate 82
Experimental: as §3, §4, §1, §2

[9] = system: S. aureus clinical isolate 109095; conditions: S. aureus clinical isolate 109095
Experimental: as §3, §4, §1, §2

[10] = system: S. aureus clinical isolate 124653; conditions: S. aureus clinical isolate 124653
Experimental: as §3, §4, §1, §2

[11] = system: clinical isolates of E. coli; conditions: stated for the E. coli clinical isolates together
Experimental: as §3, §4, §1, §2

[12] = system: clinical isolates of S. aureus; conditions: stated for the S. aureus clinical isolates together
Experimental: as §3, with “For E. faecalis three isolates were selected: strains 213 (sensitive to all the antibiotics tested), strain 82 (resistant to streptomycin), and strain 179 (resistant to gentamicin). These clinical isolates were selected to assess the antimicrobial activity of the peptide RWQWRWQWR and its analogues conjugated to fluorescent molecules in strains against strains with susceptibility profiles.” left out
The minimum inhibitory concentration (MIC) of the peptides was determined by the broth microdilution technique, according to the Clinical and Laboratory Standards Institute (CLSI) guidelines, as previously described. […] Serial dilutions of the peptides to be evaluated in 96-well plates were made in 90 µL of Mueller Hinton broth at concentrations ranging from 200 to 6.25 µg/mL, and 10 µL of the inoculum adjusted to 5 × 10^6 CFU/mL was added. Finally, the plates were incubated at 37 °C for 24 h, and the absorbance at 620 nm was read. […]

[13] = MTT cytotoxicity assay in HeLa cells; conditions: HeLa cells, MTT; read-out: Cytotoxic Activity (IC50)
Experimental: (§5) MTT assays were conducted in HeLa cells to evaluate the effect of fluorescent probe incorporation on the in vitro cytotoxic activity of the parent non-conjugated peptides. The cytotoxic effect of peptides 1, Abz-1 RhB-1, 2, and RhB-2 in HeLa cells was peptide concentration-dependent, with the highest anticancer activity observed at 200 µg/mL. Incorporation of 2-Abz and RhB at the N-terminal end reduced cytotoxic activity, while the binding of 2-Abz at the C-terminal end or FAM at the N-terminal end drastically diminished anticancer activity (Table 4).

HeLa cells = assay: MTT cytotoxicity assay in HeLa cells; conditions: HeLa cells, 200 µg/mL; listed as palindromic peptide
Experimental: as §5

Hemolysis assay = assay: Hemolysis assay
Experimental: Whole blood was collected into EDTA tubes and centrifuged at 2500 rpm for 10 min. The plasma and buffy coat were removed, and the erythrocytes were washed three times with 0.9% saline to yield a 4% cell suspension. In 96-well plates, 100 µL of peptide dilutions (6.25–200 µg/mL) were prepared in triplicate, and 100 µL of the erythrocyte suspension was added (final hematocrit 2%). Plates were incubated at 37 °C for 2 h, and then centrifuged again at 2500 rpm for 10 min. A 100 µL aliquot of the supernatant was transferred to a fresh plate, and absorbance was measured at 450 nm. Saline and 1× Triton X-100 served as the negative and positive controls, respectively. Hemolysis (%) was calculated as follows: %hemolysis=treatment absorbance−saline absorbance/1×triton absorbance−saline absorbance

With RWQWRWQWR-NH2 [peptide 1, RWQWRWQWR] the “Minimal bactericidal concentration (MBC)” value (E. coli ATCC 25922) was 34 µM, the “Minimal inhibitory concentration (MIC)” value (E. coli ATCC 25922) was 17 µM and the Minimal bactericidal concentration (MBC) (E. faecalis ATCC 29212) was > 135 µM. The Minimal inhibitory concentration (MIC) (E. faecalis ATCC 29212) was 135 µM, the “Minimal bactericidal concentration (MBC)” value [1] was 135 µM and the “Minimal inhibitory concentration (MIC)” value [1] was 67 µM. For the same substance, the “Minimal bactericidal concentration (MBC)” value (P. aeruginosa ATCC 27853) was > 135 µM, the “Minimal inhibitory concentration (MIC)” value (P. aeruginosa ATCC 27853) was 67 µM and the “Minimal bactericidal concentration (MBC)” value (S. aureus ATCC 25923) was 34 µM. The “Minimal inhibitory concentration (MIC)” value (S. aureus ATCC 25923) was 17 µM, the Minimal bactericidal concentration (MBC) [2] was > 135 µM and the Minimal inhibitory concentration (MIC) [2] was 135 µM. The “Minimal bactericidal concentration (MBC)” value [3] was > 135 µM, the “Minimal inhibitory concentration (MIC)” value [3] was 17 µM and the “Minimal inhibitory concentration (MIC)” value [4] was 34/34 µM. For the same substance, the “Minimal bactericidal concentration (MBC)” value [5] was 67 µM, the “Minimal inhibitory concentration (MIC)” value [5] was 34 µM and the Minimal bactericidal concentration (MBC) [6] was 135 µM. It also gave a Minimal inhibitory concentration (MIC) [6] of 135 µM, a Minimal bactericidal concentration (MBC) [7] of 135 µM and a Minimal inhibitory concentration (MIC) [7] of 135 µM. For the same substance, the “Minimal bactericidal concentration (MBC)” value [8] was 67/67 µM, the Minimal bactericidal concentration (MBC) [9] was 135 µM and the Minimal inhibitory concentration (MIC) [9] was 135 µM. The Minimal bactericidal concentration (MBC) [10] was > 135 µM, the Minimal inhibitory concentration (MIC) [10] was 135 µM and the MIC [11] was 17 to 34 µM. The MIC [12] was 135 µM, the IC50 [13] was 77 µg/mL and 52 µM and the cell viability (HeLa cells) was “about 20%”. The hemolysis (Hemolysis assay; at 200 µg/mL (highest tested concentration), 2 h, 37 °C, read-out: hemolysis) was 4.5%, the hemolysis (Hemolysis assay; at the lowest MIC concentration, read-out: Percentage of hemolysis) was 1.1% and the selectivity ratio (Hemolysis assay; peptide concentration at 10% hemolysis / IC50 in HeLa cells, read-out: Selectivity index) was > 3.
